Patent US20240261274A1, “TREATMENT OF MYC-DRIVEN CANCERS WITH GSPT1 DEGRADERS” (MONTE ROSA THERAPEUTICS, INC., priority 2021, published 2024)

biological target: T1, Full length wild-type cereblon CRBN (Homo sapiens, UniProt Q96SW2); assay: Fluorescence polarization (FP) assay indicating cereblon binding; conditions: Table 3B; read-out: rFP IC50
T1 construct: Full length wild-type cereblon CRBN (80.0 nM, 10 μL) was incubated in assay buffer
Description: Compound activity was monitored in a fluorescence polarization (FP) homogeneous assay using 1-[5-({2-[2-(2-{[2-(2,6-dioxopiperidin-3-yl)-1,3-dioxo-2,3-dihydro-1H-isoindol-4-yl]oxy}acetamido)ethoxy]ethyl}carbamoyl)pentyl]-3,3-dimethyl-2-[(1E,3E)-5-[(2E)-1,3,3-trimethyl-5-sulfo-2,3-dihydro-1H-indol-2-ylidene]penta-1,3-dien-1-yl]-3H-indol-1-ium-5-sulfonate as a fluorescent probe. Unless otherwise stated, all reagents were purchased from Sigma Aldrich. Enzymatic reactions were conducted in Perkin-Elmer Black 384 well ProxiPlate Plus (catalogue no. 6008269) in 10 μL total volume. Full length wild-type cereblon CRBN (80.0 nM, 10 μL) was incubated in assay buffer containing 20 mM HEPES (pH 8.0), […], 0.5 mM TCEP and 0.05% Tween 20 in the presence or absence of compound (300 nL). Inhibitors were stored as 10 mM DMSO stocks in an inert environment (low humidity, dark, low oxygen, room temperature) using the Storage Pod System. Compounds and DMSO were dispensed using the Echo E5XX (Labcyte Inc. USA) to give concentrations from 300 to 0.937 or 3000 to 9.3 nM in a 12 data point curve. […] Following incubation at room temperature for 30 min, the assay was initiated by dispensing the probe to a final concentration of 5 nM (2.5 nL of a 20 μM stock) using the Echo E5XX. FP was measured after a period of 12 hours using a Pherastar plate reader (BMG Labtech, Germany) exciting at 590 nm and measuring the amount of parallel and perpendicular light at 675 nm. The FP signal was subsequently normalized to the no-compound control (i.e., DMSO). Analysis and IC50 values were derived using Dotmatics (Dotmatics UK) software.

T1 sequence (Q96SW2 whole entry): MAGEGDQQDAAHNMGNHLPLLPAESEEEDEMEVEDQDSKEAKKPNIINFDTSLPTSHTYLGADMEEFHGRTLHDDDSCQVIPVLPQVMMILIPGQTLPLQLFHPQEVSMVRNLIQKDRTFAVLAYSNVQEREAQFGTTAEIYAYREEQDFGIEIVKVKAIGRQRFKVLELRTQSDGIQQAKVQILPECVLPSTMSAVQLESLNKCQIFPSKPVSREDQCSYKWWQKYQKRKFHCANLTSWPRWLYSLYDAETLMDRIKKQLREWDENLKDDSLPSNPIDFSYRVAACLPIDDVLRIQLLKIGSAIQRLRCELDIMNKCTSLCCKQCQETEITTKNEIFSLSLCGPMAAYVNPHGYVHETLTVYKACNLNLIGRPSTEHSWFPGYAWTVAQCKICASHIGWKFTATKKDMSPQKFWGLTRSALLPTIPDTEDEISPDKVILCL

Row | Compound | IC50
1 | Cc1ccc(NC(=O)OCc2cc(Br)c3c(c2)C(=O)N(C2CCC(=O)NC2=O)C3)cc1Cl (centres unmarked) [Compound 501] | > 1900 nM
2 | Cc1ccc(NC(=O)OCc2cc(C#N)c3c(c2)C(=O)N(C2CCC(=O)NC2=O)C3)cc1Cl (centres unmarked) [Compound 502] | > 1900 nM
3 | Cc1ccc(NC(=O)OCc2cc(F)c3c(c2)C(=O)N(C2CCC(=O)NC2=O)C3)cc1Cl (centres unmarked) [Compound 503] | > 1900 nM
4 | Cc1ccc(NC(=O)OCc2cc(Cl)c3c(c2)C(=O)N(C2CCC(=O)NC2=O)C3)cc1Cl (centres unmarked) [Compound 504] | > 1900 nM
5 | O=C1CCC(N2Cc3c(F)cc(COC(=O)Nc4cc(F)cc(OC(F)F)c4)cc3C2=O)C(=O)N1 (centres unmarked) [Compound 506] | > 1900 nM
6 | O=C1CCC(N2Cc3c(F)cc(COC(=O)Nc4ccc(-c5ccccc5)nc4)cc3C2=O)C(=O)N1 (centres unmarked) [Compound 508] | > 1900 nM
7 | O=C1CCC(N2Cc3c(F)cc(COC(=O)Nc4ccc(-c5ccccn5)cc4)cc3C2=O)C(=O)N1 (centres unmarked) [Compound 511] | ≤ 600 nM
8 | O=C1CCC(N2Cc3c(F)cc(COC(=O)Nc4cc(F)cc(OC(F)(F)F)c4)cc3C2=O)C(=O)N1 (centres unmarked) [Compound 512] | > 1900 nM
9 | CC1(c2ccc(NC(=O)OCc3cc(F)c4c(c3)C(=O)N(C3CCC(=O)NC3=O)C4)cc2)CC1 (centres unmarked) [Compound 513] | > 1900 nM
10 | O=C1CCC(N2Cc3c(F)cc(COC(=O)Nc4cccc(OC(F)(F)F)c4)cc3C2=O)C(=O)N1 (centres unmarked) [Compound 515] | > 1900 nM
11 | Cc1ccccc1-c1ccc(NC(=O)OCc2cc(F)c3c(c2)C(=O)N(C2CCC(=O)NC2=O)C3)cn1 (centres unmarked) [Compound 519] | ≤ 600 nM
12 | O=C1CCC(N2Cc3c(F)cc(COC(=O)Nc4cc(-c5ccccc5)ccn4)cc3C2=O)C(=O)N1 (centres unmarked) [Compound 524] | > 1900 nM
13 | CC(C)(C)c1cccc(NC(=O)OCc2cc(F)c3c(c2)C(=O)N(C2CCC(=O)NC2=O)C3)c1 (centres unmarked) [Compound 525] | > 1900 nM
14 | O=C1CCC(N2Cc3c(F)cc(COC(=O)Nc4cc(Cl)cc(Cl)c4)cc3C2=O)C(=O)N1 (centres unmarked) [Compound 528] | > 1900 nM
15 | Cc1cc(C)cc(NC(=O)OCc2cc(F)c3c(c2)C(=O)N(C2CCC(=O)NC2=O)C3)c1 (centres unmarked) [Compound 531] | > 1900 nM
16 | O=C1CCC(N2Cc3c(F)cc(COC(=O)Nc4cc(Cl)cc(OC(F)F)c4)cc3C2=O)C(=O)N1 (centres unmarked) [Compound 534] | > 1900 nM
17 | Cc1ccc(NC(=O)OCc2cc(F)c3c(c2)C(=O)N(C2CCC(=O)NC2=O)C3)cc1OC(F)F (centres unmarked) [Compound 535] | > 1900 nM
18 | COc1cc(COC(=O)Nc2ccc3c(c2)OCC3(C)C)cc2c1CN(C1CCC(=O)NC1=O)C2=O (centres unmarked) [Compound 537] | ≤ 600 nM
19 | COc1cc(COC(=O)Nc2ccc(N3CCCCC3C)nc2)cc2c1CN(C1CCC(=O)NC1=O)C2=O (centres unmarked) [Compound 538] | ≤ 600 nM
20 | COc1cc(COC(=O)Nc2ccc(C3(C)CC3)cc2)cc2c1CN(C1CCC(=O)NC1=O)C2=O (centres unmarked) [Compound 540] | ≤ 600 nM
21 | COc1cc(COC(=O)Nc2ccc(C(C)(C)C)nc2)cc2c1CN(C1CCC(=O)NC1=O)C2=O (centres unmarked) [Compound 544] | ≤ 600 nM
22 | COc1cc(COC(=O)Nc2cc(C)cc(C)c2)cc2c1CN(C1CCC(=O)NC1=O)C2=O (centres unmarked) [Compound 552] | ≤ 600 nM
23 | COc1cc(COC(=O)Nc2cccc(OC(F)F)c2)cc2c1CN(C1CCC(=O)NC1=O)C2=O (centres unmarked) [Compound 553] | ≤ 600 nM
24 | COc1cc(COC(=O)Nc2cccc(C(C)(C)C)c2)cc2c1CN(C1CCC(=O)NC1=O)C2=O (centres unmarked) [Compound 554] | ≤ 600 nM
25 | COc1cc(COC(=O)Nc2cc(-c3ccccc3)ccn2)cc2c1CN(C1CCC(=O)NC1=O)C2=O (centres unmarked) [Compound 556] | ≤ 600 nM
26 | COc1cc(COC(=O)Nc2cccc(OC3CC3)c2)cc2c1CN(C1CCC(=O)NC1=O)C2=O (centres unmarked) [Compound 558] | ≤ 600 nM
27 | COc1cc(COC(=O)Nc2cnc(-c3ccccc3)c(C)c2)cc2c1CN(C1CCC(=O)NC1=O)C2=O (centres unmarked) [Compound 559] | ≤ 600 nM
28 | COc1cc(COC(=O)Nc2ccc(-c3ccccc3C)nc2)cc2c1CN(C1CCC(=O)NC1=O)C2=O (centres unmarked) [Compound 560] | ≤ 600 nM
29 | Cc1ccc(NC(=O)OCc2ccc3c(c2F)C(=O)N(C2CCC(=O)NC2=O)C3)cc1Cl (centres unmarked) [Compound 571] | > 1900 nM

same assay, conditions: bound stated; read-out: IC50 value

Row | Compound | IC50
30 | COc1ccccc1CNC(=O)OCc1ccc2c(c1)C(=O)N(C1CCC(=O)NC1=O)C2 (centres unmarked) [Compound 297] | < 1100 nM
31 | CC1COc2cc(NC(=O)OCc3ccc4c(c3)C(=O)N(C3CCC(=O)NC3=O)C4)ccc21 (centres unmarked) [Compound 303] | < 1100 nM

same assay, conditions: bounds stated; read-out: IC50 value

Row | Compound | IC50
32 | COc1ccc(NC(=O)NCc2ccc3c(c2)C(=O)N(C2CCC(=O)NC2=O)C3)cc1 (centres unmarked) [Compound 5] | < 600 nM
33 | COc1ccccc1NC(=O)NCc1ccc2c(c1)C(=O)N(C1CCC(=O)NC1=O)C2 (centres unmarked) [Compound 7] | < 600 nM
34 | CC(C)(C)c1ccccc1NC(=O)NCc1ccc2c(c1)C(=O)N(C1CCC(=O)NC1=O)C2 (centres unmarked) [Compound 11] | < 600 nM
35 | CCOc1ccc(NC(=O)NCc2ccc3c(c2)C(=O)N(C2CCC(=O)NC2=O)C3)cc1 (centres unmarked) [Compound 16] | < 600 nM
36 | COc1ccc(C)cc1NC(=O)NCc1ccc2c(c1)C(=O)N(C1CCC(=O)NC1=O)C2 (centres unmarked) [Compound 17] | < 600 nM
37 | CCc1ccc(NC(=O)NCc2ccc3c(c2)C(=O)N(C2CCC(=O)NC2=O)C3)cc1 (centres unmarked) [Compound 18] | < 600 nM
38 | Cc1c(Cl)cccc1NC(=O)NCc1ccc2c(c1)C(=O)N(C1CCC(=O)NC1=O)C2 (centres unmarked) [Compound 19] | < 600 nM
39 | Cc1ccc(NC(=O)NCc2ccc3c(c2)C(=O)N(C2CCC(=O)NC2=O)C3)cc1 (centres unmarked) [Compound 21] | < 600 nM
40 | COc1ccc(NC(=O)NCc2ccc3c(c2)C(=O)N(C2CCC(=O)NC2=O)C3)c(C)c1 (centres unmarked) [Compound 23] | < 600 nM
41 | O=C1CCC(N2Cc3ccc(CNC(=O)NCC4CC4)cc3C2=O)C(=O)N1 (centres unmarked) [Compound 26] | < 600 nM
42 | O=C1CCC(N2Cc3ccc(CNC(=O)NCCc4ccccc4)cc3C2=O)C(=O)N1 (centres unmarked) [Compound 27] | < 600 nM
43 | CCc1ccccc1NC(=O)NCc1ccc2c(c1)C(=O)N(C1CCC(=O)NC1=O)C2 (centres unmarked) [Compound 36] | < 600 nM
44 | Cc1ccccc1NC(=O)NCc1ccc2c(c1)C(=O)N(C1CCC(=O)NC1=O)C2 (centres unmarked) [Compound 37] | < 600 nM
45 | O=C1CCC(N2Cc3ccc(CNC(=O)Nc4cc(Cl)cc(Cl)c4)cc3C2=O)C(=O)N1 (centres unmarked) [Compound 38] | < 600 nM
46 | O=C1CCC(N2Cc3ccc(CNC(=O)Nc4ccc(F)c(F)c4)cc3C2=O)C(=O)N1 (centres unmarked) [Compound 39] | < 600 nM
47 | O=C1CCC(N2Cc3ccc(CNC(=O)NC4CCCc5ccccc54)cc3C2=O)C(=O)N1 (centres unmarked) [Compound 40] | < 600 nM

Row | Compound | IC50
48 | O=C1CCC(N2Cc3ccc(CNC(=O)Nc4ccc(C(F)(F)F)cc4)cc3C2=O)C(=O)N1 (centres unmarked) [Compound 41] | < 600 nM
49 | O=C1CCC(N2Cc3ccc(CNC(=O)Nc4ccc(F)c(Cl)c4)cc3C2=O)C(=O)N1 (centres unmarked) [Compound 42] | < 600 nM
50 | Cc1cccc(NC(=O)NCc2ccc3c(c2)C(=O)N(C2CCC(=O)NC2=O)C3)c1 (centres unmarked) [Compound 43] | < 600 nM
51 | Cc1cccc(NC(=O)NCc2ccc3c(c2)C(=O)N(C2CCC(=O)NC2=O)C3)c1C (centres unmarked) [Compound 44] | < 600 nM
52 | O=C1CCC(N2Cc3ccc(CNC(=O)Nc4ccc(Cl)cc4Cl)cc3C2=O)C(=O)N1 (centres unmarked) [Compound 45] | < 600 nM
53 | O=C1CCC(N2Cc3ccc(CNC(=O)Nc4ccccc4F)cc3C2=O)C(=O)N1 (centres unmarked) [Compound 48] | < 600 nM
54 | O=C1CCC(N2Cc3ccc(CNC(=O)Nc4ccccc4C(F)(F)F)cc3C2=O)C(=O)N1 (centres unmarked) [Compound 49] | < 600 nM
55 | O=C1CCC(N2Cc3ccc(CNC(=O)Nc4cccc(Cl)c4Cl)cc3C2=O)C(=O)N1 (centres unmarked) [Compound 50] | < 600 nM
56 | COc1ccc(CNC(=O)NCc2ccc3c(c2)C(=O)N(C2CCC(=O)NC2=O)C3)cc1 (centres unmarked) [Compound 52] | < 600 nM
57 | COc1cccc(CNC(=O)NCc2ccc3c(c2)C(=O)N(C2CCC(=O)NC2=O)C3)c1 (centres unmarked) [Compound 53] | < 600 nM
58 | C[C@@H](NC(=O)NCc1ccc2c(c1)C(=O)N(C1CCC(=O)NC1=O)C2)c1ccccc1 (some centres unmarked) [Compound 54] | < 600 nM
59 | CC(C)(C)c1ccc(NC(=O)NCc2ccc3c(c2)C(=O)N(C2CCC(=O)NC2=O)C3)cc1 (centres unmarked) [Compound 56] | < 600 nM
60 | CC(C)c1ccc(NC(=O)NCc2ccc3c(c2)C(=O)N(C2CCC(=O)NC2=O)C3)cc1 (centres unmarked) [Compound 57] | < 600 nM
61 | O=C1CCC(N2Cc3ccc(CNC(=O)NCC4CCCCC4)cc3C2=O)C(=O)N1 (centres unmarked) [Compound 58] | < 600 nM
62 | Cc1ccc(F)cc1NC(=O)NCc1ccc2c(c1)C(=O)N(C1CCC(=O)NC1=O)C2 (centres unmarked) [Compound 62] | < 600 nM
